Key:
Format in all cases: in vivo
Set-up in all cases: key: 5=81-100%; 4=61-80%; 3=41-60%; 2=21-40%; 1=1-20%; 0=no damage to the plant; -=not tested
[1] = system: Ipomoea hederacea (IPOHE); assay: Pre-emergence test, herbicidal damage; conditions: 1000 g/ha unless otherwise stated, evaluated after 13 days, five-point scale
Zea mays (ZEAMX) [2] = assay: Pre-emergence test, herbicidal damage; conditions: 1000 g/ha unless otherwise stated, evaluated after 13 days, five-point scale
[3] = system: Amaranthus palmeri (AMAPA); assay: Pre-emergence test, herbicidal damage; conditions: 1000 g/ha unless otherwise stated, evaluated after 13 days, five-point scale
[4] = system: Echinochloa crus-galli (ECHCG); assay: Pre-emergence test, herbicidal damage; conditions: 1000 g/ha unless otherwise stated, evaluated after 13 days, five-point scale
Setaria faberi (SETFA) [5] = assay: Post-emergence test, herbicidal damage; conditions: sprayed after 8 days cultivation, 1000 g/ha unless otherwise stated, evaluated after 13 days, five-point scale
Method in brief: (§1)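 In the post-emergence test, pot-grown plants were sprayed 8 days after sowing with compound in acetone/water (50:50) containing 0.5% Tween 20, at 1000 g/ha unless stated otherwise. Plants were kept in a glasshouse at 24° C./16° C., 14 hours light and 65% humidity. Damage was scored after 13 days on a 0–5 scale (5=81-100%).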

Zea mays (ZEAMX) [6] = assay: Post-emergence test, herbicidal damage; conditions: sprayed after 8 days cultivation, 1000 g/ha unless otherwise stated, evaluated after 13 days, five-point scale
Method in brief: as §1

[7] = system: Echinochloa crus-galli (ECHCG); assay: Post-emergence test, herbicidal damage; conditions: sprayed after 8 days cultivation, 1000 g/ha unless otherwise stated, evaluated after 13 days, five-point scale
Method in brief: as §1

[8] = system: Ipomoea hederacea (IPOHE); assay: Post-emergence test, herbicidal damage; conditions: sprayed after 8 days cultivation, 1000 g/ha unless otherwise stated, evaluated after 13 days, five-point scale
Method in brief: as §1

[9] = system: Amaranthus retoflexus (AMARE); assay: Post-emergence test, herbicidal damage; conditions: sprayed after 8 days cultivation, 1000 g/ha unless otherwise stated, evaluated after 13 days, five-point scale
Method in brief: as §1

[10] = system: Amaranthus palmeri (AMAPA); assay: Post-emergence test, herbicidal damage; conditions: sprayed after 8 days cultivation, 1000 g/ha unless otherwise stated, evaluated after 13 days, five-point scale
Method in brief: as §1

[11] = system: Amaranthus retoflexus (AMARE); assay: Pre-emergence test, herbicidal damage; conditions: 1000 g/ha unless otherwise stated, evaluated after 13 days, five-point scale
Setaria faberi (SETFA) [12] = assay: Pre-emergence test, herbicidal damage; conditions: 1000 g/ha unless otherwise stated, evaluated after 13 days, five-point scale

Row | Compound | percentage damage caused to the plant, IPOHE [1] | percentage damage caused to the plant, ZEAMX (Zea mays (ZEAMX) [2]) | percentage damage caused to the plant, AMAPA [3] | percentage damage caused to the plant, ECHCG [4] | percentage damage caused to the plant, SEFTA (Setaria faberi (SETFA) [5]) | percentage damage caused to the plant, ZEAMX (Zea mays (ZEAMX) [6]) | percentage damage caused to the plant, ECHCG [7] | percentage damage caused to the plant, IPOHE [8] | percentage damage caused to the plant, AMARE [9] | percentage damage caused to the plant, AMAPA [10] | percentage damage caused to the plant, AMARE [11] | percentage damage caused to the plant, SEFTA (Setaria faberi (SETFA) [12])
1 | Cc1c(C2CC2)c(-c2ccc(Cl)c(Cl)c2)c(C(=O)O)c(=O)n1Cc1ccc(Cl)cc1F [Compound 39, 1-[(4-chloro-2-fluoro-phenyl)methyl]-5-cyclopropyl-4-(3,4-dichlorophenyl)-6-methyl-2-oxo-pyridine-3-carboxylic acid] | 1 (1=1-20%) | 1 (1=1-20%) | 1 (1=1-20%) | 2 (2=21-40%) | 1 (1=1-20%) | 1 (1=1-20%) | 2 (2=21-40%) | 2 (2=21-40%) | 0 | 1 (1=1-20%) | 0 | 2 (2=21-40%)
2 | CC#Cc1c(-c2ccc(Cl)c(Cl)c2)c(C(=O)O)c(=O)n(-c2cc(F)cc(Cl)c2)c1C [Compound 40, 1-(3-chloro-5-fluoro-phenyl)-4-(3,4-dichlorophenyl)-6-methyl-2-oxo-5-prop-1-ynyl-pyridine-3-carboxylic acid] | 0 | 0 | 0 | 0 | 0 | 0 | 0 | 0 | 0 | 0 | 0 | 0
3 | Cc1c(O)c(-c2ccc(Cl)c(Cl)c2)c(C(=O)O)c(=O)n1-c1ccc(Cl)cc1F [Compound 42, 1-(4-chloro-2-fluoro-phenyl)-4-(3,4-dichlorophenyl)-5-hydroxy-6-methyl-2-oxo-pyridine-3-carboxylic acid] | 0 | 0 | 2 (2=21-40%) | 1 (1=1-20%) | 0 | 0 | 0 | 1 (1=1-20%) | 2 (2=21-40%) | 2 (2=21-40%) | 2 (2=21-40%) | 0
